Patent publication US20170258787A1, “PROPHYLACTIC AND/OR THERAPEUTIC AGENT FOR BEHAVIORAL AND PSYCHOLOGICAL SYMPTOMS ASSOCIATED WITH NEURODEGENERATIVE DISEASE OR IMPULSIVE SYMPTOMS ASSOCIATED WITH MENTAL DISEASE CONTAINING BREXPIPRAZOLE OR SALT THEREOF” (OTSUKA PHARMACEUTICAL CO., LTD., priority 2012, published 2017)

Key:
Wistar rat [1] = settings: reported in Alcohol & Alcoholism 2001; 36:2-10; cited from earlier work
Tg2576 mouse = test: Resident-Intruder test (aggression, biting); type: in vivo; settings: 0.03 mg/kg oral 1 hr before test
Text: Animal: Tg2576 mice (male) having a Swedish APP mutation (K670N, M671L) and non-Tg mice (male) free of the same genetic mutation as a control were purchased from Taconic, and bred and aged until 5- to 6-month-old of age. During the breeding, isolated housing was applied. Measurement method: For the experiment, Tg2576 or non-Tg mouse [Resident] and A/J mouse [Intruder] almost free of aggression were used. Resident formed a sufficient territory by isolated housing for 14 days. […] As the aggressive behavior, biting was noted, and the time necessary for the first biting and total number of biting for 10 min were measured. The measurement was performed within the dark period phase 1 (4 hr) when the amount of locomotor activity of the mouse is the highest. Tg2576 (48 mice) and non-Tg mice (10 mice) were subjected to a Resident-Intruder test in advance, and promotion of the to aggression of the Tg2576 mouse was confirmed. Five Tg2576 mice free of aggression were excluded and 43 mice were used for the test. The mice were grouped into 3 groups in such manner as makes the mean and variance of the groups equal, using the time necessary for the first attack and total number of biting for 10 min, which were obtained in the preliminary test, as indices (total 43 mice). […]

APPSL-Tg mouse = test: Measurement of mouse circadian rhythm locomotor activity (spontaneous locomotor activity in dark period); type: in vivo; settings: for spontaneous locomotor activity, dark period III (3:00-7:00), Night 1 / spontaneous locomotor activity, dark period III (3:00-7:00), Night 2 / spontaneous locomotor activity, dark period III (3:00-7:00), Night 3: APPSL-Tg mice
Text: 1) Measurement of Mouse Circadian Rhythm Locomotor Activity
(§1) Animal: APPSL-Tg mouse (male) having Swedish and London APP mutations, and non-Tg mouse (male) free of a genetic mutation as a control were generated (Neuroscience Letters 2010; 469:273-277), bred in a breeding room, and used after they became 6-month-old. During the breeding, isolated housing was applied.
(§2) Measurement method: SUPERMEX manufactured by Muromachi Kikai Co., Ltd. was used for the measurement of circadian rhythm locomotor activity. The mouse was placed in an individual cage, and the spontaneous locomotor activity of the mouse was measured for 3 days (total 62.5 hr) under free-feeding, drinking water conditions. In this apparatus, a passive infrared sensor detects infrared rays emitted from the mouse, and the number of transpositions is counted. The measured values are totaled every 30 min, and automatically totaled using a specialized software CompACT AMS. The test was performed in a soundproof chamber, so that the spontaneous locomotor activity of the mouse would not be influenced. The lighting time in the soundproof chamber was set to 7:00-19:00 as in the breeding room.
The amounts of spontaneous locomotor activity of non-Tg mice and APPSL-Tg mice during the dark period of 19:00-7:00 were measured in advance. The mice were grouped in such manner as makes the mean and variance of the groups equal, using the body weight and the dark period spontaneous locomotor activity as indices.
Brexpiprazole was dissolved in distilled water containing 5% gum arabic, 5% gum arabic distilled water was used for the vehicle group, and they were orally administered to each mouse.
For 3 days, brexpiprazole and the vehicle were administered during the period of 17:30-18:30. After the administration, the measurement of the amount of locomotor activity was rapidly started or continued.
The statistical test was a two-sided test, and the significance level of the test was set to 5%. As a statistical software, SAS (R9.1, SAS Institute Japan Ltd.) was used.
Dunnett's test was performed based on the repeated measures ANOVA using a mixed model for Night 1-Night 3 at every phase I, II or III of the dark period. Furthermore, Dunnett's test was performed for every dark period and Night.

Wistar rat [2] = test: Measurement of alcohol intake by limited access paradigm; type: in vivo
Description: Measurement method: An impulsive behavior of cravings for alcohol was evaluated as follows by reference to the method of Sinclair et al. (Alcohol 1992; 9:441-44 and Alcohol & Alcoholism 2001; 36:2-10). First, Wistar rat (male) was allowed to freely take 10% aqueous ethanol solution and tap water for several weeks under isolated housing. After stabilization of ethanol intake by each animal, a limited access paradigm allowing ethanol intake for only 1 hr per day was started, and the ethanol intake for 1 hr was measured every day. Ethanol intake was calculated from the results of the weight measurement of the water supply bottle filled with 10% aqueous ethanol solution immediately before the start of the limited access paradigm and immediately after completion thereof. An animal which was showing over 0.4 g/kg/hr in terms of 100% ethanol as an average ethanol intake in the limited access paradigm for 4 days immediately before drug evaluation was used. The limited access paradigm test was performed between 9:00 AM-12:00 PM. Brexpiprazole was suspended in distilled water containing 5% gum arabic. […] An average ethanol intake in the limited access paradigm of 4 days immediately before drug evaluation and an average ethanol intake in the limited access paradigm of 4 days after drug administration were analyzed by the 2-tailed paired t-test.

c-fos-GFP mouse = test: Measurement of nerve activation pattern (GFP signal) of c-fos-GFP mouse; type: in vivo; settings: brain isolated 3 hr later
Description: Measurement method: c-fos is an indirect marker for neuronal activity, which is expressed on activation of nerve cell. Using a transgenic mouse introduced with a green fluorescent protein (GFP) gene at the downstream of the promoter of c-fos gene (c-fos-GFP mouse), the nerve activation pattern in the brain was measured. Brexpiprazole or vehicle was administered, and the brain was isolated 3 hr later. GFP signals from serial sections of the whole brain were stored in a computer using a two-photon microscope and, after three-dimensional reconstruction, the nerve activation patterns of brexpiprazole (OPC-34712) and vehicle groups were quantitatively analyzed using the brain map information. Brexpiprazole was suspended in distilled water containing 5% gum arabic, and orally administered to c-fos-GFP mouse. Five to seven mice were used. The dose of brexpiprazole was 0.3 and 1 mg/kg. The significance level of the test was set to 5%. In the comparison between groups in each brain region, Tukey's multiple comparison test was conducted.

non-Tg mouse = test: Measurement of mouse circadian rhythm locomotor activity in control mice; type: in vivo
Text: as §1, §2
Brexpiprazole was administered to APPSL-Tg mouse immediately before the dark period (17:30-18:30) at a dose of 0.01 and 0.03 mg/kg, and the measurement of the spontaneous locomotor activity was started. […]

Wistar rat [3] = test: Spontaneous locomotor activity under novel environments; type: in vivo; settings: 0.1 mg/kg, data not indicated
[4] = test system: patients with highly severe Alzheimer's disease; settings: 12 weeks, Alzheimer's disease patients in nursing home, cited from earlier work
[5] = test system: mouse having a Disc1 L100P point mutation; settings: Neuron 54(3): 387-402, 2007; cited from earlier work
schizophrenia patients = settings: Psychiatric Services 2001, 52:1510-14; cited from earlier work
[6] = 0.01 mg/kg oral, n = 6, mean ± standard error
[7] = 0.03 mg/kg oral, n = 5, mean ± standard error

## C=C1CC[C@@]2(O)[C@H]3Cc4ccc(O)c5c4[C@@]2(CCN3CC2CC2)[C@H]1O5 [Nalmefene]
Wistar rat [1]
  effect in the limited access paradigm evaluation system: shows effect in this evaluation system

## O=c1ccc2ccc(OCCCCN3CCN(c4cccc5sccc45)CC3)cc2[nH]1 [brexpiprazole, 7-[4-(4-benzo[b]thiophen-4-yl-piperazin-1-yl)butoxy]-1H-quinolin-2-one]
Tg2576 mouse; P<0.05
  time necessary for the first biting compared to the vehicle group: significantly elongated
Tg2576 mouse; P=0.0709
  number of biting for 10 min compared to the vehicle group: tended to show a decreased number of biting
APPSL-Tg mouse; 0.01 mg/kg oral, P<0.01
  spontaneous locomotor activity at Night 3, dark period phase III, vs vehicle (in words): significantly suppressed the spontaneous locomotor activity at Night 3
APPSL-Tg mouse; 0.01 mg/kg oral, P<0.05
  spontaneous locomotor activity in dark period phase III compared to the vehicle group (Night 1-Night 3): significantly suppress the spontaneous locomotor activity
APPSL-Tg mouse; 0.03 mg/kg oral, P=0.050
  spontaneous locomotor activity in dark period phase III compared to the vehicle group (Night 1-Night 3): significantly suppress the spontaneous locomotor activity
APPSL-Tg mouse; 0.03 mg/kg oral, P=0.068
  spontaneous locomotor activity at Night 3, dark period phase III, vs vehicle (in words): tended to suppress at Night 3
APPSL-Tg mouse; [6]
  spontaneous locomotor activity, dark period III (3:00-7:00), Night 1: 7256
  spontaneous locomotor activity, dark period III (3:00-7:00), Night 2: 6466
APPSL-Tg mouse; 0.01 mg/kg oral, n = 6, mean ± standard error, P < 0.01 vs vehicle
  spontaneous locomotor activity, dark period III (3:00-7:00), Night 3: 4928
APPSL-Tg mouse; [7]
  spontaneous locomotor activity, dark period III (3:00-7:00), Night 1: 6014
  spontaneous locomotor activity, dark period III (3:00-7:00), Night 2: 5443
APPSL-Tg mouse; 0.03 mg/kg oral, n = 5, mean ± standard error, P = 0.068 vs vehicle
  spontaneous locomotor activity, dark period III (3:00-7:00), Night 3: 6845
Wistar rat [2]; 0.1 mg/kg oral for 4 days, five rats
  ethanol intake observed individually: all rats showed a decrease in the ethanol intake
Wistar rat [2]; 0.1 mg/kg oral once per day for 4 days, 1 hr before, vs 4 days before drug
  average ethanol intake in the limited access paradigm: statistically significant suppression of ethanol intake
c-fos-GFP mouse; 0.3 mg/kg oral
  GFP signal in the medial prefrontal cortex (ACA, PL, IL) relative to vehicle: significantly increased GFP signal
c-fos-GFP mouse; 1 mg/kg oral
  GFP signal in the medial prefrontal cortex (ACA, PL, IL) relative to vehicle: significantly increased GFP signal
non-Tg mouse
  spontaneous locomotor activity in dark period: did not decrease the spontaneous locomotor activity
Wistar rat [3]
  influence on spontaneous locomotor activity under novel environments: does not influence spontaneous locomotor activity

## COc1cc2c(cc1OC)C(=O)C(CC1CCN(Cc3ccccc3)CC1)C2 (stereo not drawn) [donepezil]
[4]; p value 0.95
  NPI (Neuropsychiatric Inventory) score vs placebo: no statistically significant difference
[4]; p value 0.98
  CMAI (Cohen-Mansfield Agitation Inventory) score vs placebo: no statistically significant difference

## O=C(CCCN1CCC(O)(c2ccc(Cl)cc2)CC1)c1ccc(F)cc1 [haloperidol]
[5]
  schizophrenia-like behaviors: reduced the schizophrenia-like behaviors
Schizophrenia patients
  hostility (positive scale of PANSS): aggravated hostility

## Cc1nc2n(c(=O)c1CCN1CCC(c3noc4cc(F)ccc34)CC1)CCCC2 [risperidone]
Schizophrenia patients
  hostility (positive scale of PANSS): aggravated hostility
